The values that follow come from ChEMBL document CHEMBL1250536, “Identification of small molecule inhibitors of telomerase activity through transcriptional regulation of hTERT and calcium induction pathway in human lung adenocarcinoma A549 cells” (2010).

Active and inactive are the calls of the source. The calls are words filed in the database; no cut-off is given here.

Experiment [1] concerns the target Telomerase reverse transcriptase (Homo sapiens) (UniProt O14746). Put plainly: Inhibition of telomerase in human A549 cells at 25 uM after 24 hrs by TRAP assay. In kind it is cell-based.
The target is the same in experiment [2]. Put plainly: Inhibition of telomerase in human A549 cells after 24 hrs by TRAP assay. In kind it is cell-based.
Experiment [3] has the same target. In words: Inhibition of telomerase in human A549 cells at 25 uM by TRAP assay. In kind it is cell-based. As to conditions: TDE = time-dependent effect.
Experiment [4] relates to A549. Put plainly: Cytotoxicity against human A549 cells assessed as reduction of cell proliferation after 24 hrs by MTS assay. In kind it is functional, cell-based. For orientation: Formazan colour is commonly taken as a measure of viable cells.
Experiment [5] concerns A549. Put plainly: Cytotoxicity against human A549 cells assessed as reduction of cell proliferation at 50 uM after 24 hrs by MTS assay. It is filed as functional. Also noted: scale not given: the % may be the effect or the level left.
Experiment [6] has as its system A549. In words: Reduction of hTERT mRNA expression in human A549 cells after 6 hrs by RT-PCR analysis. In kind it is functional, cell-based.
For experiment [7], the system named is A549. Put plainly: Reduction of hTR mRNA expression in human A549 cells at up to 50 uM after 6 hrs by RT-PCR analysis. It is filed as functional, cell-based.
Experiment [8] concerns A549. Put plainly: Reduction of GADD153 mRNA expression in human A549 cells at up to 50 uM after 6 hrs by RT-PCR analysis. In kind it is functional, cell-based.
Experiment [9] concerns A549. Put plainly: Reduction of hTERT mRNA expression in human A549 cells at 50 uM after 6 hrs by RT-PCR analysis. It is filed as functional. The arrangement: scale not given: the % may be the effect or the level left.
Experiment [10] relates to A549. In words: Reduction of hTERT protein expression in human A549 cells after 6 hrs by Western blotting. It is filed as functional, cell-based. (In general: In western blotting, separated proteins are transferred to a membrane and probed.)
Experiment [11] relates to A549. Put plainly: Reduction of colony formation in human A549 cells at 6.25 uM after 24 hrs by anchorage-independence cell growth assay relative to control. In kind it is functional. The arrangement: scale not given: the % may be the effect or the level left.
Experiment [12] concerns A549. In words: Reduction of colony formation in human A549 cells at 12.5 uM after 24 hrs by anchorage-independence cell growth assay relative to control. It is filed as functional. The arrangement: scale not given: the % may be the effect or the level left.
Experiment [13] deals with A549. Put plainly: Reduction of colony formation in human A549 cells at 25 uM after 24 hrs by anchorage-independence cell growth assay relative to control. It is filed as functional. Also noted: scale not given: the % may be the effect or the level left.
Experiment [14] addresses Telomerase reverse transcriptase (Homo sapiens) (UniProt O14746). Put plainly: Inhibition of telomerase in human A549 cells assessed as increase of intracellular calcium release after 24 hrs using Fluo-3 AM staining by microscopic analysis. In kind it is cell-based. A general note: Calcium flux is commonly read through the fluorescence of an indicator in the cells.
For experiment [15] the target is unchanged. In words: Inhibition of telomerase in human A549 cells assessed as increase of intracellular calcium release after 24 hrs using Fluo-3 AM staining by microscopic analysis in presence of BAPTA-AM pretreated for 1 hr. In kind it is cell-based.
For experiment [16] the target is unchanged. In words: Inhibition of telomerase in human A549 cells at 25 uM after 24 hrs by TRAP assay in presence of 10 uM of MEK inhibitor U0126 pretreated for 1 hr. In kind it is cell-based.
Experiment [17] shares this target. Put plainly: Inhibition of telomerase in human A549 cells at 25 uM after 24 hrs by TRAP assay in presence of 20 uM of ERK inhibitor PD-98059 pretreated for 1 hr. It is filed as cell-based.
For experiment [18] the target is unchanged. In words: Inhibition of telomerase in human A549 cells at 25 uM after 24 hrs by TRAP assay in presence of 50 uM of MAPK inhibitor SB-203580 pretreated for 1 hr. In kind it is cell-based.
The target is the same in experiment [19]. In words: Inhibition of telomerase in human A549 cells at 25 uM after 24 hrs by TRAP assay in presence of 20 uM of intracellular calcium chelator BAPTA-AM pretreated for 1 hr. It is filed as cell-based.
The target is the same in experiment [20]. In words: Inhibition of telomerase in human A549 cells at 25 uM after 24 hrs by TRAP assay in presence of 20 uM of 26S proteasome inhibitor MG132 pretreated for 1 hr. It is filed as cell-based.
Experiment [21] shares this target. Put plainly: Inhibition of telomerase in human A549 cells at 25 uM after 24 hrs by TRAP assay in presence of 20 nM of nuclear export inhibitor leptomycin B pretreated for 1 hr. It is filed as cell-based.
Experiment [22] has the same target. Put plainly: Inhibition of telomerase in human A549 cells at 25 uM after 24 hrs by TRAP assay in presence of 50 uM of PI3 K inhibitor LY-294002 pretreated for 1 hr. It is filed as cell-based.
Experiment [23] deals with A549. Put plainly: Reduction of hTERT mRNA expression in human A549 cells after 6 hrs by RT-PCR analysis in presence of 20 uM of intracellular calcium chelator BAPTA-AM pretreated for 1 hr. In kind it is functional, cell-based.
The test system of experiment [24] is A549. In words: Reduction of hTR mRNA expression in human A549 cells at 20 uM after 6 hrs by RT-PCR analysis. It is filed as functional, cell-based.
Experiment [25] concerns A549. In words: Reduction of hTERT protein expression in human A549 cells at 25 uM after 24 hrs by immunofluorescence assay. It is filed as functional, cell-based.
Experiment [26] concerns A549. In words: Translocation of hTERT from nuclei to cytoplasm in human A549 cells at 25 uM after 24 hrs by immunofluorescence assay. In kind it is functional, cell-based.
Experiment [27] has as its system A549. In words: Reduction of hTERT protein expression in human A549 cells at 25 uM after 24 hrs by immunofluorescence assay in presence of intracellular calcium chelator BAPTA-AM pretreated for 1 hr. It is filed as functional, cell-based.

Sequence of Telomerase reverse transcriptase (Homo sapiens) (O14746 whole entry): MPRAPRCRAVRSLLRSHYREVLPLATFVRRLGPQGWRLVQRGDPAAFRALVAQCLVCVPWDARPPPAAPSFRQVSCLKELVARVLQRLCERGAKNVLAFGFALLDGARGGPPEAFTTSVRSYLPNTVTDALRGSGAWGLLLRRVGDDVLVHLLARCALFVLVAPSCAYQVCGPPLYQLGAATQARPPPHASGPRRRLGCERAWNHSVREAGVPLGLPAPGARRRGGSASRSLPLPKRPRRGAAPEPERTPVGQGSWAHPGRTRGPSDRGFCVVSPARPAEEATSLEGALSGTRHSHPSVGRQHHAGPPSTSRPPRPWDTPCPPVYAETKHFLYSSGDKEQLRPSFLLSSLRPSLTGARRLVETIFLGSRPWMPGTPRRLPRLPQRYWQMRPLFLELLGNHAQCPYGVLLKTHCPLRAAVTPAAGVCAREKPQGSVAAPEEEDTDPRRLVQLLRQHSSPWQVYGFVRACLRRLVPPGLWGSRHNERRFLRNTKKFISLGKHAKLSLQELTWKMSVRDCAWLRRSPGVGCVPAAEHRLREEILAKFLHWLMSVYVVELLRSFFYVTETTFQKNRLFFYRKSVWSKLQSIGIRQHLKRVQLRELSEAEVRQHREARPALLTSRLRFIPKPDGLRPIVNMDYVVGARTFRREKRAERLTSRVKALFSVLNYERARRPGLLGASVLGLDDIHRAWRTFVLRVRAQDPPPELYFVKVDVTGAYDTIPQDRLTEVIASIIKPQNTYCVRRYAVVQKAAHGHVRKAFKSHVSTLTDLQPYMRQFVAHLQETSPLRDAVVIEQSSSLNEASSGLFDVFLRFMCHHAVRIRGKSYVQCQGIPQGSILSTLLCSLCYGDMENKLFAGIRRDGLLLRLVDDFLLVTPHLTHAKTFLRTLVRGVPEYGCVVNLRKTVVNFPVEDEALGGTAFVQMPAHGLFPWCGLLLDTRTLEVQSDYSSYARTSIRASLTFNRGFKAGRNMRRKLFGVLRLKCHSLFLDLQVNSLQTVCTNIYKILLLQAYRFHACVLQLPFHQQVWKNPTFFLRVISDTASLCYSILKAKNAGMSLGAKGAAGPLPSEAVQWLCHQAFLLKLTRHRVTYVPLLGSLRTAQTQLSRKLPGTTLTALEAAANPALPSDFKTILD

On to `COc1cc(OC)c2c(c1)O[C@H](c1ccccc1)CC2=O`, for which, in experiment [1], the inhibition entry is “inactive”.
Still for that read-out and setting: the same measure for `COc1cccc(/C=C/C(=O)c2cc(OC)c(OC)c(OC)c2)c1OC`: “Active”; for `COC[C@H](Cc1ccc(OC)c(OC)c1)[C@H](COC)Cc1ccc(OC)c(OC)c1`: “inactive”.
Consider `COc1cc(/C=C/C(=O)c2cc(OC)c(OC)c(OC)c2)cc(OC)c1OC`, for which the inhibition entry in [1] was “Active”.
With `COc1cc(O)c(C(=O)/C=C/c2cccc(OC)c2OC)c(OC)c1`, the inhibition result in experiment [1], in experiment [16], in [17], in experiment [18], in [20] and in [21] was “Active” in each case. For the same molecule, the inhibition result in experiment [22] was “Active”. Further, the values for the inhibition entry in experiment [2], in [3] and in experiment [14] were “Dose-dependent effect”, “tde” and “Dose-dependent effect”, respectively. Also, the Activity result was “Dose-dependent effect” in the experiment with A549 [4]; 59% in the experiment with A549 [5]; “Dose-dependent effect” in the experiment on A549 [6]; 92% with A549 [9]; “Dose-dependent effect” with A549 [10]; 23% in the experiment on A549 [11]. Further, the Activity in the experiment on A549 [12] turned out to be 96%; in the experiment with A549 [13], 70%. Also, the result in the experiment on A549 [7], with A549 [8], with A549 [23], in the experiment on A549 [24], in the experiment with A549 [26] and with A549 [27] was inactive. Further, the inhibition result in experiment [15] and in experiment [19] was “inactive” in each case. The result in the experiment on A549 [25] was Active.
With `COc1cc(O)c2c(c1OC)O[C@H](c1ccccc1)CC2=O`, in experiment [1], the inhibition entry is “inactive”.
For `COc1c(O)cc(C(=O)O)cc1O`, the inhibition result in experiment [1] was “inactive”.
Regarding `COc1ccc(/C=C2/COc3cc(O)ccc3C2=O)cc1`, the inhibition entry in experiment [1] was “Active”.
Still for that read-out and setting: with `COc1cc(C(=O)/C=C/c2ccc(N(C)C)cc2)cc(OC)c1OC` the entry was “inactive”; with `C[C@H]1O[C@H](Oc2cc(O)c3c(=O)c(O[C@H]4O[C@H](C)[C@@H](O[C@H]5O[C@H](CO)[C@@H](O)[C@H](O)[C@H]5O)[C@H](O)[C@@H]4O)c(-c4ccc(O)cc4)oc3c2)[C@@H](O)[C@@H](O)[C@@H]1O`, “inactive”.
Same read-out and setting: the same measure for `COc1ccc(/C=C/C(=O)c2cc(OC)c(OC)c(OC)c2)cc1OC`: “Active”.
